Measured values taken from patent US20250195521A1 (Revolution Medicines, Inc., priority 2020, published 2025).
Like-named read-outs stand apart in the source and are kept apart here.

Legend:
[1] = biological target: NRAS WT binding to BRAF RBD (Homo sapiens (Human), UniProt P01111+P62937); assay: Ras-Raf disruption/FRET/MOA assay, NRAS WT; format: biochemical
From the text: (§1) Disruption of B-Raf Ras-binding Domain (BRAF^RBD) Interaction with K-Ras by Compounds of the Invention (also called a FRET assay or an MOA assay)
(§2) Note—The following protocol describes a procedure for monitoring disruption of K-Ras G12C(GMP-PNP) binding to BRAF^RBD by a compound of the invention. This protocol may also be executed substituting other Ras proteins or nucleotides.
(§3) The purpose of this biochemical assay was to measure the ability of test compounds to facilitate ternary complex formation between a nucleotide-loaded K-Ras isoform and Cyclophilin A; the resulting ternary complex disrupts binding to a BRAF^RBD construct, inhibiting K-Ras signaling through a RAF effector. Data is reported as IC50 values.
(§4) In assay buffer containing 25 mM HEPES pH 7.3, 0.002% Tween20, 0.1% BSA, 100 mM NaCl and 5 mM MgCl2, tagless Cyclophilin A, His6-K-Ras-GMPPNP, and GST-BRAF^RBD were combined in a 384-well assay plate at final concentrations of 25 μM, 12.5 nM and 50 nM, respectively. Compound was present in plate wells as a 10-point 3-fold dilution series starting at a final concentration of 30 μM. After incubation at 25° C. for 3 hours, a mixture of Anti-His Eu—W1024 and anti-GST allophycocyanin was then added to assay sample wells at final concentrations of 10 nM and 50 nM, respectively, and the reaction incubated for an additional 1.5 hours. […] Compounds that facilitate disruption of a K-Ras: RAF complex were identified as those eliciting a decrease in the TR-FRET ratio relative to DMSO control wells.

[2] = biological target: NRAS Q61K binding to BRAF RBD (Homo sapiens (Human), UniProt P01111+P62937, Q61K); assay: Ras-Raf disruption/FRET/MOA assay, NRAS Q61K; format: biochemical
From the text: as §1, §2, §3, §4

[3] = biological target: KRAS Q61H binding to BRAF RBD (Homo sapiens (Human), UniProt P01116+P62937, Q61H); assay: Ras-Raf disruption/FRET/MOA assay, KRAS Q61H; format: biochemical
From the text: as §1, §2, §3, §4

[4] = biological target: K-Ras G12C(GMP-PNP) binding to BRAF RBD (Homo sapiens (Human), UniProt P01116+P62937, G12C); assay: Disruption of BRAF RBD interaction with K-Ras (FRET / MOA assay), K-Ras G12C; format: biochemical; conditions: read-out: KRAS G12C FRET IC50
Method in brief: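 Cpd 10-pt 3-fold dilution, top 30 μM final; Ras/CypA/BRAF RBD mix 3 h, 25° C. Add anti-His Eu-W1024 10 nM + anti-GST APC 50 nM final, 1.5 h. Readout TR-FRET ratio decrease vs DMSO → IC50.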

[5] = biological target: NRAS G12C binding to BRAF RBD (Homo sapiens (Human), UniProt P01111+P62937, G12C); assay: Ras-Raf disruption/FRET/MOA assay, NRAS G12C; format: biochemical
From the text: as §2, §3
as §4, with “Compound” for “In assay buffer containing 25 mM HEPES pH 7.3, 0.002% Tween20, 0.1% BSA, 100 mM NaCl and 5 mM MgCl2, tagless Cyclophilin A, His6-K-Ras-GMPPNP, and GST-BRAF^RBD were combined in a 384-well assay plate at final concentrations of 25 μM, 12.5 nM and 50 nM, respectively. Compound”

[6] = biological target: KRAS G13D binding to BRAF RBD (Homo sapiens (Human), UniProt P01116+P62937, G13D); assay: Ras-Raf disruption/FRET/MOA assay, KRAS G13D; format: biochemical
From the text: as §2, §3
as §4, with “Compound” for “In assay buffer containing 25 mM HEPES pH 7.3, 0.002% Tween20, 0.1% BSA, 100 mM NaCl and 5 mM MgCl2, tagless Cyclophilin A, His6-K-Ras-GMPPNP, and GST-BRAF^RBD were combined in a 384-well assay plate at final concentrations of 25 μM, 12.5 nM and 50 nM, respectively. Compound”

[7] = biological target: NRAS Q61R binding to BRAF RBD (Homo sapiens (Human), UniProt P01111+P62937, Q61R); assay: Ras-Raf disruption/FRET/MOA assay, NRAS Q61R; format: biochemical
From the text: as §1, §2, §3, §4

NCI-H358 (K-Ras G12C) = assay: CellTiter-Glo cell viability assay, NCI-H358; format: cell-based, human; conditions: Homo sapiens, NCI-H358, 120 h, 5-day treatment; read-out: H358 Cell Viability assay data (K-Ras G12C, IC50)
Method in brief: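 Luminescent CellTiter-Glo read-out on day 5 after compound exposure; signal expressed as percent of mean DMSO control; four-parameter logistic fit gives the value.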

[8] = test system: K-Ras G12C (NCI-H358 cells); assay: Potency assay: pERK in NCI-H358 cells; format: cell-based, human; conditions: Homo sapiens; NCI-H358 cells, 4 hours; read-out: pERK EC50 (H358 KRAS G12C)
Method in brief: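 Cells plated the day before were exposed for 4 h at 37° C, 5% CO2 to a 10-point, 3-fold DMSO dilution series (10 mM top stock), in duplicate. Phospho-ERK was read by AlphaLISA SureFire Ultra or by In-Cell Western with DRAQ5 DNA stain, and IC50 came from a 4-parameter sigmoidal fit.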

[9] = 18-membered ring

Sequence of KRAS Q61H binding to BRAF RBD (P01116 other isoform, or with tags, fused parts or gaps Q61H): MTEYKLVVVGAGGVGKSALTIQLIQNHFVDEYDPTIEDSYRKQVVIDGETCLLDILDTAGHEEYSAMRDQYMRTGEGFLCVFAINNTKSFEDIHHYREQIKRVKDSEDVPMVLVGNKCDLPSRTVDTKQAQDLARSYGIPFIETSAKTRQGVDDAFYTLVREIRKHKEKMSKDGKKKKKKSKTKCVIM
Sequence of KRAS Q61H binding to BRAF RBD (P62937 whole entry): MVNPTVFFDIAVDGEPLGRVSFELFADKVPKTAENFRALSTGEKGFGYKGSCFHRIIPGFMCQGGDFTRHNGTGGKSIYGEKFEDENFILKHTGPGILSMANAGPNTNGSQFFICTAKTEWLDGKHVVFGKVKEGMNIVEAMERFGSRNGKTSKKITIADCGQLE
Sequence of NRAS Q61R binding to BRAF RBD (P01111 whole entry Q61R): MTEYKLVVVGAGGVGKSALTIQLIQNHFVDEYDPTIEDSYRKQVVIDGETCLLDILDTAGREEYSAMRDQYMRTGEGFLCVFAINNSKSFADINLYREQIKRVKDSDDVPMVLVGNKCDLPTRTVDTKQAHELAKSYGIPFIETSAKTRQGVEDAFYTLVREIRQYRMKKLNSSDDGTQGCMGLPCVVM
Sequence of NRAS Q61R binding to BRAF RBD (P62937 whole entry): as the sequence (P62937 whole entry) above
Sequence of NRAS WT binding to BRAF RBD (P01111 whole entry, the tested form may be a part): as the sequence (P01111 whole entry Q61R) above, with R61Q counted along it
Sequence of NRAS WT binding to BRAF RBD (P62937 whole entry, the tested form may be a part): as the sequence (P62937 whole entry) above
Sequence of NRAS G12C binding to BRAF RBD (P01111 whole entry G12C): as the sequence (P01111 whole entry Q61R) above, with G12C, R61Q counted along it
Sequence of NRAS G12C binding to BRAF RBD (P62937 whole entry): as the sequence (P62937 whole entry) above
Sequence of NRAS Q61K binding to BRAF RBD (P01111 whole entry Q61K): as the sequence (P01111 whole entry Q61R) above, with R61K counted along it
Sequence of NRAS Q61K binding to BRAF RBD (P62937 whole entry): as the sequence (P62937 whole entry) above
Sequence of KRAS G13D binding to BRAF RBD (P01116 other isoform, or with tags, fused parts or gaps G13D): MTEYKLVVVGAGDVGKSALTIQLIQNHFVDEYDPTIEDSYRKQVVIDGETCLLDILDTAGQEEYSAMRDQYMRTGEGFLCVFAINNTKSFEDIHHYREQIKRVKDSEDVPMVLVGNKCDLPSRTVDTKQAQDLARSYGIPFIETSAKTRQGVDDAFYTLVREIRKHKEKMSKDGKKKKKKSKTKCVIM
Sequence of KRAS G13D binding to BRAF RBD (P62937 whole entry): as the sequence (P62937 whole entry) above
Sequence of K-Ras G12C(GMP-PNP) binding to BRAF RBD (P01116 other isoform, or with tags, fused parts or gaps G12C): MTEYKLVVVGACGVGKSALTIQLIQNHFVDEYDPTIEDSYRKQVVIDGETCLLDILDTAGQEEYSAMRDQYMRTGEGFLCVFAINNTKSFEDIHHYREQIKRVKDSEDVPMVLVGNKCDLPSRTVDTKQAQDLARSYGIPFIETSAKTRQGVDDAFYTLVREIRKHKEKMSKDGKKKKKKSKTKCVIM
Sequence of K-Ras G12C(GMP-PNP) binding to BRAF RBD (P62937 whole entry): as the sequence (P62937 whole entry) above

CCn1c(-c2cncnc2)c2c3cc(ccc31)-c1csc(n1)C[C@H](NC(=O)[C@H](C(C)C)N(C)C(=O)[C@H]1CCN(S(=O)(=O)CC)C1)C(=O)N1CCC[C@H](N1)C(=O)OCC(C)(C)C2 [Compound A170]
IC50 [1]: > 10 µM | IC50 [2]: > 10 µM | IC50 [3]: > 10 µM | IC50 [4]: 1 to 10 µM | IC50 [5]: 1 to 10 µM | IC50 [6]: > 10 µM | IC50 [7]: > 10 µM | IC50 (NCI-H358 (K-Ras G12C)): 0.1 to 1 µM

C=C(C)C(=O)N1CC(N(C)C(=O)N(C)[C@H](C(=O)N[C@H]2Cc3nc(cs3)-c3ccc4c(c3)c(c(-c3cccnc3[C@H](C)OC)n4CC)CC(C)(C)COC(=O)[C@@H]3CCCN(N3)C2=O)C(C)C)C1 [Compound A359]
IC50 [1]: 1 to 10 µM | IC50 [2]: 1 to 10 µM | IC50 [3]: 1 to 10 µM | IC50 [7]: 1 to 10 µM

C=CC(=O)N1CC[C@H](C(=O)N(C)[C@H](C(=O)N[C@H]2CC3CN(CCO3)c3ccc4c(c3)c(c(-c3cccnc3[C@H](C)OC)n4CC)CC(C)(C)COC(=O)[C@@H]3CCCN(N3)C2=O)C(C)C)C1 [Compound A378]
IC50 [1]: 1 to 10 µM | IC50 [2]: > 10 µM | IC50 [3]: > 10 µM | IC50 [5]: 0.1 to 1 µM | EC50 [8]: < 5 µM | IC50 [6]: > 10 µM | IC50 [7]: > 10 µM | IC50 (NCI-H358 (K-Ras G12C)): 0.1 to 1 µM

C=CC(=O)N1CC[C@H](C(=O)C2CC[C@H](C)[C@H]2C(=O)N[C@H]2Cc3cccc(c3)-c3ccc4c(c3)c(c(-c3cccnc3[C@H](C)OC)n4CC)CC(C)(C)COC(=O)[C@@H]3CCCN(N3)C2=O)C1 (stereo partly shown) [Compound A494]
IC50 [1]: 1 to 10 µM | IC50 [2]: 1 to 10 µM | IC50 [3]: 0.1 to 1 µM | IC50 [5]: 0.1 to 1 µM | EC50 [8]: < 5 µM | IC50 [6]: > 10 µM | IC50 [7]: 1 to 10 µM

benzyl 4-(5-((6^3S,3S,4S,Z)-4-((tert-butoxycarbonyl) amino)-3-ethoxy-1^1-(2-isopropoxyethyl)-10,10-dimethyl-5,7-dioxo-6^1,6^2,6^3,6^4,6^5,6^6-hexahydro-1^1H-8-oxa-2 (4,2)-thiazola-1 (5,3)-indola-6 (1,3)- pyridazinacycloundecaphane-12-yl)-6-((S)-1-methoxyethyl) pyridin-3-yl) piperazine-1-carboxylate
ring closure, isolated yield ([9]; cc_pd bond, Pd(dtbpf)Cl2/K3PO4, toluene/1,4-dioxane/H2O 3:1:1, 16.0 mM, 65.0 °C): 44%

benzyl 4-((((6^3S,3S,4S,Z)-4-((tert-butoxycarbonyl) amino)-1^1-ethyl-1^2-(2-((S)-1-methoxyethyl) pyridin-3-yl)-10,10-dimethyl-5,7-dioxo-6^1,6^2,6^3,6^4,6^5,6^6-hexahydro-1^1H-8-oxa-2 (4,2)-thiazola-1 (5,3)-indola-6 (1,3)-pyridazinacycloundecaphane-3-yl)oxy) methyl)-3,6-dihydropyridine-1 (2H)-carboxylate
ring closure, isolated yield ([9]; cc_pd bond, Pd(dtbpf)Cl2/K3PO4, toluene/dioxane/H2O, 60.0 °C): 32%

benzyl 5-((6^3S,3S,4S,Z)-4-((tert-butoxycarbonyl) amino)-3-ethoxy-1^1-ethyl-10, 10-dimethyl-5,7-dioxo-6^1,6^2,6^3,6^4,6^5,6^6-hexahydro-1^1H-8-oxa-2 (4,2)-thiazola-1 (5,3)-indola-6 (1,3)-pyridazinacycloundecaphane-12-yl)-6-((S)-1-methoxyethyl)-3′, 6′-dihydro-[3,4′-bipyridine]-1′ (2′H)-carboxylate
ring closure, isolated yield ([9]; cc_pd bond, Pd(dtbpf)Cl2/K3PO4, toluene/1,4-dioxane/H2O 3:1:1, 40.7 mM, 70.0 °C): 39%

tert-butyl ((2^2R,6^3S,4S)-1^1-ethyl-1^2-(2-((S)-1-methoxyethyl) pyridin-3-yl)-22-(methoxymethyl)-10,10-dimethyl-5,7-dioxo-2^1,2^2,2^3,2^6,6^1,6^2,6^3,6^4,6^5,6^6-decahydro-1^1H-8-oxa-1 (5,3)-indola-6 (1,3)-pyridazina-2 (5,1)-pyridinacycloundecaphane-4-yl) carbamate
ring closure, isolated yield ([9]; cc_pd bond, Pd(dppf)Cl2/K3PO4, toluene/dioxane/H2O, […], 70.0 °C): 30%

tert-butyl ((6^3S,3S,4S,Z)-3-(2,2-difluoroethoxy)-1^1-ethyl-1^2-(2-((S)-1-methoxyethyl) pyridin-3-yl)-10,10-dimethyl-5,7-dioxo-6^1,6^2,6^3,6^4,6^5,6^6-hexahydro-1^1H-8-oxa-2 (4,2)-thiazola-1 (5,3)-indola-6 (1,3)-pyridazinacycloundecaphane-4-yl) carbamate
ring closure, isolated yield ([9]; cc_pd bond, Pd(dtbpf)Cl2/K3PO4, toluene/dioxane/H2O, 10.0 mM, 60.0 °C): 59%

tert-butyl ((6^3S,3S,4S,Z)-3-ethoxy-1^1-ethyl-1^2-(2-((S)-1-methoxyethyl) pyridin-3-yl)-10, 10-dimethyl-5,7-dioxo-6^1,6^2,6^3,6^4,6^5,6^6-hexahydro-1^1H-8-oxa-2 (4,2)-thiazola-1 (5,3)-indola-6 (1,3)-pyridazinacycloundecaphane-4-yl) carbamate
ring closure, isolated yield ([9]; cc_pd bond, Pd(dtbpf)Cl2/K3PO4, toluene/dioxane/H2O, 26.7 mM, 60.0 °C): 31%

tert-butyl ((6^3S,4S)-2^3-((tert-butyldiphenylsilyl)oxy)-1^1-ethyl-1^2-(2-((S)-1-methoxyethyl) pyridin-3-yl)-10,10-dimethyl-5,7-dioxo-2^1,2^2,2^3,2^6,6^1,6^2,6^3,6^4,6^5,6^6-decahydro-1^1H-8-oxa-1 (5,3)-indola-6 (1,3)- pyridazina-2 (5,1)-pyridinacycloundecaphane-4-yl) carbamate
ring closure, isolated yield ([9]; cc_pd bond, Pd(dppf)Cl2/K2CO3, toluene/1,4-dioxane/H2O 3:1:1, 20.0 mM, 65.0 °C): 42%

tert-butyl ((6^3S,4S)-25-(difluoromethyl)-1^1-ethyl-1^2-(2-((S)-1-methoxyethyl) pyridin-3-yl)-10,10-dimethyl-5,7-dioxo-6^1,6^2,6^3,6^4,6^5,6^6-hexahydro-1^1H-8-oxa-1 (5,3)-indola-6 (1,3)-pyridazina-2 (1,3)-benzenacycloundecaphane-4-yl) carbamate
ring closure, isolated yield ([9]; ester bond, EDCI/HOBt/DIEA, DCM): 51%

tert-butyl ((6^3S,4S,Z)-1^1-ethyl-1^2-(2-((S)-1-methoxyethyl) pyridin-3-yl)-10,10-dimethyl-5,7-dioxo-6^1,6^2,6^3,6^4,6^5,6^6-hexahydro-1^1H-8-oxa-2 (2,4)-oxazola-1 (5,3)-indola-6 (1,3)-pyridazinacycloundecaphane-4-yl) carbamate
ring closure, isolated yield ([9]; cc_pd bond, XPhos Pd G3/XPhos/K3PO4, dioxane/H2O 5:1, 55.0 mM, 70.0 °C): 56%

tert-butyl ((6^3S,4S,Z)-1^1-ethyl-1^2-(2-((S)-1-methoxyethyl) pyridin-3-yl)-21, 10, 10-trimethyl-5,7-dioxo-6^1,6^2,6^3,6^4,6^5,6^6-hexahydro-11H,21H-8-oxa-1 (5,3)-indola-6 (1,3)-pyridazina-2 (5,3)-triazolacycloundecaphane-4-yl) carbamate
ring closure, isolated yield ([9]; cc_pd bond, XPhos Pd G3/XPhos/K3PO4, dioxane/H2O 5:1, 71.7 mM, 75.0 °C): 56.8%
